Experiments:
COX-2 = target: T1, COX-2 (Homo sapiens, UniProt P35354); assay type: biochemical; conditions: for IC50: read-out: IC50 COX-2, radioactivity assay, pre-incubation 17 min at 25 °C and 3 min at 37 °C, 50 μM [14C]-AA for 30 sec, average of at least two independent experiments; for COX-2 inhibition, result in words: initial screen at 25 μM / relevant concentration range
T1 sequence (P35354 18-604): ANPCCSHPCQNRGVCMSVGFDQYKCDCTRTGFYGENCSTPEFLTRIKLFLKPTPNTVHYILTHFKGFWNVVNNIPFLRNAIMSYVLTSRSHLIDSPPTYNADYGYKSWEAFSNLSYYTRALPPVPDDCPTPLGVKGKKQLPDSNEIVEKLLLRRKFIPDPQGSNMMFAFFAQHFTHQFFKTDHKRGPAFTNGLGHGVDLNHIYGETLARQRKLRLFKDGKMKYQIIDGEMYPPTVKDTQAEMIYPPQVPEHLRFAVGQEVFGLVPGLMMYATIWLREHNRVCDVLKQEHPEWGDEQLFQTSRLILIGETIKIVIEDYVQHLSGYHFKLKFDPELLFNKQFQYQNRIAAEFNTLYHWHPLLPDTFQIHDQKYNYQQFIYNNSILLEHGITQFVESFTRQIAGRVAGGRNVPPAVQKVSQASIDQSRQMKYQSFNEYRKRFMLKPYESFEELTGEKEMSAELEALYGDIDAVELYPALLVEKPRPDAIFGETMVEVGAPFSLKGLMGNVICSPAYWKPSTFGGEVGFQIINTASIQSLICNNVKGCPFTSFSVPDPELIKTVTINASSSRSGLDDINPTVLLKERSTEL

COX-1 = COX-1 (Homo sapiens, UniProt P23219); assay type: biochemical; conditions: for COX-1 inhibition, result in words: initial screen at 25 μM / relevant concentration range; for IC50: read-out: IC50 COX-1, radioactivity assay, pre-incubation 17 min at 25 °C and 3 min at 37 °C, 50 μM [14C]-AA for 30 sec, average of at least two independent experiments
COX-1, sequence (P23219 24-599): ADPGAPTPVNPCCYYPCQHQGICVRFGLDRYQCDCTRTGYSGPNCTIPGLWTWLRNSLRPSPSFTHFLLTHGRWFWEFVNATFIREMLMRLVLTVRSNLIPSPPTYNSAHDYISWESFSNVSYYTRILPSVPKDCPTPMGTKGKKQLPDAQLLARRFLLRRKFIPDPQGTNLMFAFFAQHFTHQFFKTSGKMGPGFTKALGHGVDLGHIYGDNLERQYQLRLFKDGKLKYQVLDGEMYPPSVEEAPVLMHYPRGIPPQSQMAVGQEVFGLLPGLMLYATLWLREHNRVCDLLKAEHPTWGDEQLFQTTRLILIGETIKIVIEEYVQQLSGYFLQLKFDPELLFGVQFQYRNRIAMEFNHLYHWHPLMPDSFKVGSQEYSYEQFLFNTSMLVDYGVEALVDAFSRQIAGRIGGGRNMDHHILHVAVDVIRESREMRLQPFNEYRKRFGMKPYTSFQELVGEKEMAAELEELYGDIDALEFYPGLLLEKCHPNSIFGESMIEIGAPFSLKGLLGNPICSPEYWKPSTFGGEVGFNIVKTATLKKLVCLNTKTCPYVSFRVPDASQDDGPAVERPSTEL

Row | Compound | IC50 (COX-2) | COX-1 inhibition, result in words (COX-1) | IC50 (COX-1) | COX-2 inhibition, result in words (COX-2)
1 | 1-(1-Carboxy-1,2-dicarba-closo-dodecaboran(12)yl)-5-methoxy-2-methyl-1H-indole-3-acetic acid tert-butyl ester [Compound 3o] | 1.41 µM | not COX-1 | > 25 µM | exclusively inhibited COX-2
2 | 1-(1-Carboxy-1,2-dicarba-closo-dodecaboran(12)yl)-5-methoxy-2-methyl-1H-indole-3-acetic acid [Compound 4o] | 3.68 µM | not COX-1 | > 25 µM | exclusively inhibited COX-2
3 | COC(=O)Cc1c(C)n(C(=O)c2ccc(Cl)cc2)c2ccc(OC)cc12 [Compound 1i, Indomethacin methyl ester, reference compound] | – | – | > 25 µM | –

Stronger by IC50 (COX-1), values ahead:

Row | IC50 (COX-2) | COX-1 inhibition, result in words (COX-1) | IC50 (COX-1) | COX-2 inhibition, result in words (COX-2) | Compound
4 | 11.6 µM | also inhibited COX-1 | 15.1 µM | – | 1-(1-Carboxy-1,2-dicarba-closo-dodecaboran(12)yl)-5-methoxy-2-methyl-1H-indole-3-acetic acid benzyl ester [Compound 2o]
5 | 0.084 µM | also inhibited COX-1 | 12.8 µM | – | 1-(1-Carboxy-1,2-dicarba-closo-dodecaboran(12)yl)-5-methoxy-2-methyl-1H-indole-3-acetic acid methyl ester [Compound 1o]

— publication PMC3408963 (Bioorganic & medicinal chemistry, 2012)
